“Also recorded” adds a separate entry of the source.
Experiments:
[1] = system: Staphylococcus aureus (ATCC 25923); experiment: Sanitizer Test on glass slides, 5-minute contact time (parallels EPA Non-Food Contact Sanitizer Test DIS/TSS-10); type: cell-based; conditions: S. aureus, dopant to hypochlorite 0.20 to 1.0, 985 ppm TAC
Method: The test method used to evaluate antimicrobial efficacy was the Sanitizer Test described below.
(§1) Sanitizer Test: Glass slides measuring 18×36 mm were washed in a dishwasher, placed in glass petri dishes on 2 pieces of Whatman no. 2 filter paper and autoclaved. The slides were inoculated with a 10 μl sterile bacterial loop. The inoculum was spread over the upper surface of the slide being careful not to exceed the edges of the slide. The inoculum was a 24 hour culture having a concentration of approximately 10^9 organisms per ml. Following inoculation, the slides were incubated at 35° C. for 30±5 minutes to allow the slides to dry. The test product was then sprayed liberally onto the test surface (6 sprays/slide—approximately 6 ml of product) and the slides were allowed to stand for the desired contact time. The slides were removed from the petri dish using flamed forceps after exposure to the test product for the specified contact time and placed into test tubes containing 15.0 ml of the desired neutralizer for neutralization of the test product. Both 2× Letheen Broth (Tween 80 & Lecithin) and Dey/Engley neutralizing broths were separately utilized. Test bacteria was recovered by vortexing each test tube for 15 seconds. Serial dilutions were made using diluent. The pour plate technique using Tryptic Soy Agar was used to obtain plate counts. Parallel tests were run using a citrate-buffered (pH 5) solution of the dopant at a concentration equal to that in the doped test solutions or a 0.01% solution of Triton X-100 (isooctylphenoxy-polyethoxyethanol with 9-10 moles oxyethylene) in an identical manner to serve as controls. Blank parallel controls, using sterile, de-ionized water as the test product, were also evaluated.
A 5-minute contact time using-a glass slide test surface was employed.
(§2) The test products used are described below.

[2] = system: Klebsiella pneumoniae (ATCC 4352); experiment: Sanitizer Test on glass slides, 1-minute contact time; type: cell-based; conditions: K. pneumoniae, 100 ppm TAC
Method: as §1, §2

[3] = Long-term stability at 40° C., NaOCl by iodometric titration and pH; type: physicochemical; conditions: up to Day 58
Method: Preparation of a stock 3.0% stabilized hypochlorite solution (0.75 to 1.0 mole ratio of sulfamate to NaOCl, pH 4.9 citric acid buffer): Anhydrous citric acid (210.0 g), sulfamic acid (88.0 g) and sodium hydroxide (93.0 g) were dissolved in deionized water (1897.54 g). The reaction mixture was allowed to cool to room temperature (approximately 1 hour).
All stabilized hypochlorite-containing test formulas were prepared by further dilution of the 3.0% stabilized NaOCl stock solution. Where applicable, the appropriate amount of each dopant was added to a known volume of diluted stock solution. Solutions containing varying mole ratios of sulfamate to NaOCl (1.0 to 1.0 and 1.5 to 1.0) were prepared by adding solid sodium sulfamate, as required, to 1.0 liter portions of the diluted stock solution. For all “doped” formulas, the ratio of NaOCl to dopant was 1.0:0.20.
Long-term stability samples were stored in a 40° C. incubator. After cooling to room temperature (23° C.) the concentration of NaOCl was determined via iodometric titration. The experimentally determined concentration of NaOCl is expressed in units of molarity (M). The recorded pH of each formula is shown in parentheses.

[4] = system: Staphylococcus aureus; experiment: Sanitizer Test on glass slides, 1-minute contact time; type: cell-based; conditions: S. aureus, 500 and 200 ppm TAC
Method: as §1
However, a 1-minute contact time using a glass slide test surface was employed. Staphylococcus aureus was the test organism used. The test products that were used are described below.
Results are reported as a bacterial reduction (log reduction) of the formulation

| SMILES | antimicrobial enhancing effect of dopant added to base stabilized hypochlorite composition (in words) [1] | antimicrobial effectiveness of stabilized hypochlorite solutions containing the dopant (in words) [2] | effect of added dopant on long term stability of sulfamate-stabilized hypochlorite solutions (in words) [3] | antimicrobial effectiveness of stabilized hypochlorite solutions containing the dopant (in words) [4] |
| --- | --- | --- | --- | --- |
| NS(=O)(=O)c1ccc(C(=O)O)cc1 [4-carboxybenzenesulfonamide] | significantly enhances the antimicrobial activity | – | – | – |
| CC1(C)NC(=O)NC1=O [5,5-dimethylhydantoin] | significantly enhances the antimicrobial activity | have antimicrobial effectiveness against K. pneumoniae | does not alter the long termn stability | lowest levels of enhanced antimicrobial efficacy |
| O=C1NC2NC(=O)NC2N1 (stereo not shown) [Glycoluril, glycoluril] | modest antimicrobial benefit | – | – | – |
| NS(=O)(=O)c1ccccc1 [benzenesulfonamide] | significantly enhances the antimicrobial activity | have antimicrobial effectiveness against K. pneumoniae | does not alter the long termn stability | most effective |
| O=c1[nH]c(=O)[nH]c(=O)[nH]1 [cyanuric acid] | do not appear to have an antimicrobial enhancing effect | – | – | – |
| Nc1nc(N)nc(N)n1 [melamine] | do not appear to have an antimicrobial enhancing effect | – | – | – |
| O=C1CCC(=O)N1 [succinimide] | significantly enhances the antimicrobial activity | have antimicrobial effectiveness against K. pneumoniae | – | have antimicrobial effectiveness |
| Cc1ccc(S(N)(=O)=O)cc1 [toluenesulfonamide] | significantly enhances the antimicrobial activity; also recorded: antimicrobial enhancing ability | – | – | – |

From patent US6471974B1, “N-chlorosulfamate compositions having enhanced antimicrobial efficacy” (S.C. Johnson & Son, Inc., priority 1999, dated 2002)
